The results in this text go back to patent publication US11414416B1, “Compounds and uses thereof” (Foghorn Therapeutics Inc., priority 2019, dated 2022).

Holding throughout (format): cell-based
Assay [1] relates to non-synovial control cancer cell lines (RD, HCT116, and Calu6). Put plainly: Growth of non-synovial control cancer cell lines, crystal violet day 14 (Example 4). Particulars: treated daily, day 14, FIG. 9. On the procedure:
(§1) Procedure: Cells were seeded into 6-well or 12-well plates and were treated daily with a BRD9 degrader (Compound 1), a bromo-domain BRD9 binder (Compound 2), E3 ligase binder (lenalidomide), DMSO, or staurosporin (positive control for cell killing), at indicated concentrations. The number of cells was optimized for each cell line. Growth media was refreshed every 5 days. By day 14, medium was removed, cells were washed with PBS, and stained using 500 μL of 0.005% (w/v) crystal violet solution in 25% (v/v) methanol for at least 1 hour at room temperature. Subsequently plates were scanned on an Odyssey CLx Imaging system.

The subject of assay [2] is SYO1 cells. Description: Cell cycle analysis, Click-iT Plus EdU Flow Cytometry Assay. Particulars: SYO1, 200 nM or 1 μM, 8 or 13 days, compared to DMSO and lenalidomide. As for the experimental part: (§2) Procedure: SYO1 cells were treated for 8 or 13 days with DMSO, a BRD9 degrader (Compound 1) at 200 nM or 1 μM, or an E3 ligase binder (lenalidomide) at 200 nM. Compounds were refreshed every 5 days. Cell cycle analysis was performed using the Click-iT™ Plus EdU Flow Cytometry Assay (Invitrogen). The apoptosis assay was performed using the Annexin V-FITC Apoptosis Detection Kit (Sigma A9210). Assays were performed according to the manufacturer's protocol.
Background: In flow cytometry, cells or beads pass a laser one at a time.

Assay [3] concerns SYO1 cells. Description: Apoptosis assay, Annexin V-FITC Apoptosis Detection Kit. Particulars: SYO1, 200 nM or 1 μM, 8 days, compared to DMSO controls. As for the experimental part:
as §2

The test system of assay [4] is synovial sarcoma cell lines (SYO1, Yamato, HS-SY-II, and ASKA). Description: Growth of synovial sarcoma cell lines (confluency, crystal violet, colonies; Example 3). Particulars: FIGS. 5-7, 1 μM in crystal violet assay. On the procedure: (§3) Cells were treated with DMSO or the BRD9 degrader, Compound 1, at indicated concentrations, and proliferation was monitored from day 7 to day 14 by measuring confluency over time using an IncuCyte live cell analysis system (FIG. 5). Growth medium and compounds were refreshed every 3-4 days.
(§4) Cells were seeded into 12-well plates and treated with DMSO, 1 μM BRD9 inhibitor, Compound 2 (also known as BI-7273, see Martin et al, J Med Chem. 59(10):4462-4475 (2016); see structure of Compound 2 below), or 1 μM BRD9 degrader, Compound 1.
(§5) The number of cells was optimized for each cell line. Growth medium and compounds were refreshed every 3-5 days. SYO1, Yamato, A549, 293T and HS-SY-II cells were fixed and stained at day 11. ASKA cells were fixed and stained at day 23. Staining was done by incubation with crystal violet solution (0.5 g Crystal Violet, 27 ml 37% Formaldehyde, 100 mL 10×PBS, 10 mL Methanol, 863 dH20 to 1 L) for 30 min followed by 3× washes with water and drying the plates for at least 24 h at room temperature. Subsequently plates were scanned on an Odyssey CLx Imaging system (FIG. 6).
(§6) Cells were seeded into 96-well ultra low cluster plate (Costar, #7007) in 200 μL complete media and treated at day 2 with DMSO, Staurosporin, or BRD9 degarder, Compound 1, at indicated doses (FIG. 7). Media and compounds were changed every 5 d and cell colonies were imaged at day 14.

Assay [5] concerns non-synovial control cancer cell lines (293T, A549, G401). Description: Growth of non-synovial control cancer cell lines (Example 3). To be noted: FIGS. 5-7. As for the experimental part:
as §3, §4, §5, §6

The test system of assay [6] is synovial sarcoma cell lines (SYO1, HS-SY-II, and ASKA). Put plainly: Growth of synovial sarcoma cell lines, crystal violet day 14 (Example 4). On the procedure:
as §1

As for `COc1cc(-c2cn(C)c(=O)c3cnccc23)cc(OC)c1CN(C)CC(=O)NCCOCCOCCNc1cccc2c1C(=O)N(C1CCC(=O)NC1=O)C2=O` (stereo not shown) [Compound 1], the “inhibition of growth of non-synovial control cancer cell lines” value in assay [1] is “did not result in inhibition of the growth”; in assay [5], “does not result in inhibition of the growth”. Further, the “numbers of cells in the S-phase of the cell cycle” value in the assay with SYO1 cells [2] was “reduced numbers of cells in the S-phase”. In the assay with SYO1 cells [3], the “numbers of early- and late-apoptotic cells” value is “increased numbers of early- and late-apoptotic cells”. The “inhibition of growth of synovial sarcoma cell lines” value in assay [4] is given as “inhibition of the growth of the cells”; in assay [6] (SYO1, HS-SY-II, ASKA, treated daily, day 14, FIG. 8), “inhibition of the growth of the cells”. The “overall comparison of growth inhibition in synovial cell lines” value in assay [6] (compared with Compound 2 and lenalidomide) was “most significant growth inhibition”.
